Reference: article PMC6006164, “Natural cyclopeptide RA-V inhibits the NF-κB signaling pathway by targeting TAK1” (Cell Death & Disease, 2018)

Columns and labels:
[1] = tested on: IL-8 production; assay: TNF-α-induced IL-8 production, ELISA; format: cell-based; details: HeLa; RA-V 12 h, 10 ng/mL TNF-α 2 h; ELISA of supernatant; dose-dependent
Experimental: Fig. 1 RA-V inhibits TNF-α- and LPS-induced activation of NF-κB. a Chemical structure of RA-V. b RA-V inhibited the NF-κB signaling pathway in a dose-dependent manner. HEK293T or HeLa cells were transfected with the 5 × κB-luciferase and pTK-Renilla reporters. Twenty-four hours after transfection, the cells were incubated with various concentrations of RA-V for 6 h, and then treated with 10 ng/mL TNF-α for 2 h before the luciferase activity assay and MTT assay. c RA-V reduced TNF-α-induced expression of NF-κB target genes. HEK293T or HeLa cells were treated with various concentrations of RA-V for 24 h and stimulated with 10 ng/mL TNF-α for 2 h. The expression of the NF-κB target genes, IL-8, MCP-1, and E-selectin was measured by quantitative RT-PCR and normalized to GADPH expression. d RA-V inhibited TNF-α-induced p65 phosphorylation, IκBα phosphorylation and IκBα degradation. HEK293T or HeLa cells were incubated with various concentrations of RA-V for 24 h and treated with 10 ng/mL TNF-α for 10 min. The cell lysates were prepared and subjected to western blot analysis with the indicated antibodies. e RA-V inhibited TNF-α-induced IL-8 production. […] The expression of IL-6 was measured. h RA-V inhibited LPS-induced p65 phosphorylation, IκBα phosphorylation. […] The protein expression was measured. i RA-V inhibited LPS-induced IL-6 production. […] The expression of IL-6 was measured.

[2] = tested on: HepG2 xenograft tumors; assay: HepG2 xenograft in nude mice; format: in vivo, female athymic nude BALB/c mice
Experimental: Fig. 7 RA-V inhibits tumor growth and the expression of NF-κB target genes in a nude xenograft model. a–d Inhibition of the growth of HCT116 and HepG2 xenograft tumors by RA-V. Female athymic nude BALB/c mice bearing HCT116 (n = 8) or HepG2 (n = 7) xenograft tumors were intravenously injected with various concentrations of RA-V micelles or control micelles every other day. 5-FU (10 mg/kg) group as positive control. Effects of RA-V on the growth curves of subcutaneoue xenografts of HCT116 (a) and HepG2 (b) and effects on the tumor weight in the HCT116 (c) and HepG2 (d) models. e–f Tumors removed were photographed. g–h The expression of the NF-κB target genes, IL-8, MCP-1, and CXCL-1, in HCT116 (g) and HepG2 (h) tumor tissue from vehicle- and various concentrations of RA-V-treated group was determined by quantitative RT-PCR and normalized to GADPH expression. *, p < 0.05; **, p < 0.01; ***, p < 0.001
In total, 2 × 10^6 HCT116 or 3 × 10^6 HepG2 cells were subcutaneously injected into the right dorsal flank of 6- to 8-week-old female athymic nude BALB/c mice. After tumor volumes reached 100 mm^3, the tumor-bearing mice were randomly divided into several groups. The mice bearing HCT116 (n = 8) or HepG2 xenograft tumors (n = 7) were received the intravenous injection of vehicle micelles or various concentrations of RA-V micelles every other day. 5-FU (10 mg/kg) group as positive control. Body weights and tumor volumes were recorded every other day. Tumor volumes were calculated using the following formula: tumor volume (mm^3) = 0.52 × length × width^2. At the end of the experiments, the mice were killed. Tumor xenografts of each mouse were removed and weighed. Part of each tumor tissue was stored at liquid nitrogen for quantitative RT-PCR analysis. […] Serum alanine transaminase(ALT), aspartate transaminase(AST), and creatine kinase(CK) were determined using relevant kits (Nanjing Jiancheng) according to the manufacturer’s specific instructions.

[3] = biological target: T1, TAK1 (Homo sapiens, UniProt O43318); assay: Streptavidin agarose pull-down with biotin-tagged probe CB12; format: binding; details: lysates of HEK293T transfected with TAK1; RA-V in 10-fold excess
T1 construct: expressed in transfected cells; host or cells: HEK293T
T1 sequence (O43318 1-579 isoform O43318-2): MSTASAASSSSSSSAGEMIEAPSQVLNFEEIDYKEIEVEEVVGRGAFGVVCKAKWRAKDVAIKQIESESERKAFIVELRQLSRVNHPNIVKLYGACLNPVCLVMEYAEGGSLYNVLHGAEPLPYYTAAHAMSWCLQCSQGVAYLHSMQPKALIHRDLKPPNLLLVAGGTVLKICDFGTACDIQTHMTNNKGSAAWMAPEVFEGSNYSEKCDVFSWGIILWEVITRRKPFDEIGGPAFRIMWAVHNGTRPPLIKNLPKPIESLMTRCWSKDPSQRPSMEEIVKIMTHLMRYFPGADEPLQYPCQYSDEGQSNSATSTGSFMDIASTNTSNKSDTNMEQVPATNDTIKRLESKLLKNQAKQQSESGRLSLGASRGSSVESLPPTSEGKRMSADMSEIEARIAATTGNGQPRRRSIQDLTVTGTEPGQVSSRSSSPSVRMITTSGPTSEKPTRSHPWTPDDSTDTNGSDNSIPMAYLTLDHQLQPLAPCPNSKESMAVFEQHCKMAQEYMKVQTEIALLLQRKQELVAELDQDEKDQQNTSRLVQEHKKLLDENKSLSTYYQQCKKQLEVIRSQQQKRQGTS
Experimental: HEK293T cells were transfected with TAK1 for 24 h, then the cell lysates were incubated with biotin or CB12 followed by streptavidin agarose pull-down. […] HEK293T cells were transfected with the indicated plasmids for 24 h. The cell lysates were pulled down with streptavidin agarose and then immunoblotted with HA or Flag antibody. Each experiment was repeated at least three times
HEK293T cells were transfected with TAK1-N or TAK1-C for 24 h. The cells lysates were incubated with CB12 or biotin and precipitated with streptavidin-coated sepharose and were analyzed by immunoblotting with Flag antibody. b The model for RA-V binding to the crystal structure of the TAK1–TAB1 fusion protein (PDB 4GS6). […] HEK293T cells were transfected with TAK1 for 24 h, and then the cell lysates were incubated with biotin or CB12 before precipitation with streptavidin agarose. […] HeLa cells were incubated with various concentrations of RA-V for 12 h and then treated with 10 ng/mL TNF-α for 10 min. The cell lysates were prepared and western blotted with the indicated antibodies. Each experiment was repeated at least three times
HEK293T cells were harvested and lysed in RIPA buffer with protease inhibitors. […] The samples were separated by SDS-PAGE, and the bound proteins were detected using the indicated antibodies.

[4] = HepG2, n = 7, RA-V micelles i.v. every other day, vs control

With RA-V the “TNF-α-induced production of IL-8” value [1] was “inhibited”, the “tumor growth rate (tumor volume)” value [2, 4] was “significantly reduced” and the tumor weight [2, 4] was “obviously lower”. The “expression of IL-8, MCP-1, and CXCL-1 in tumor tissue” value ([2]; HepG2 xenograft, quantitative RT-PCR) was “remarkable decreased” and the “competition with the CB12–TAK1 interaction (pull-down)” value [3] was “competed away”.
